Measured values reported in US12612380B2, “Non-lysosomal glucosylceramidase inhibitors and uses thereof” (ALECTOS THERAPEUTICS INC., priority 2019, dated 2026).
Read-outs that look alike come from different tables or passages of the source.

How the values were obtained:
[1] = molecular target: T1, GBA2 (Homo sapiens, UniProt Q9HCG7); assay: Determination of IC50 values for inhibition of GBA2 in cell lysate; type: biochemical; set-up: host or cells: HEK293T (lentiviral transduction, puromycin selection); used as cellular homogenate
T1 sequence (Q9HCG7 1-927): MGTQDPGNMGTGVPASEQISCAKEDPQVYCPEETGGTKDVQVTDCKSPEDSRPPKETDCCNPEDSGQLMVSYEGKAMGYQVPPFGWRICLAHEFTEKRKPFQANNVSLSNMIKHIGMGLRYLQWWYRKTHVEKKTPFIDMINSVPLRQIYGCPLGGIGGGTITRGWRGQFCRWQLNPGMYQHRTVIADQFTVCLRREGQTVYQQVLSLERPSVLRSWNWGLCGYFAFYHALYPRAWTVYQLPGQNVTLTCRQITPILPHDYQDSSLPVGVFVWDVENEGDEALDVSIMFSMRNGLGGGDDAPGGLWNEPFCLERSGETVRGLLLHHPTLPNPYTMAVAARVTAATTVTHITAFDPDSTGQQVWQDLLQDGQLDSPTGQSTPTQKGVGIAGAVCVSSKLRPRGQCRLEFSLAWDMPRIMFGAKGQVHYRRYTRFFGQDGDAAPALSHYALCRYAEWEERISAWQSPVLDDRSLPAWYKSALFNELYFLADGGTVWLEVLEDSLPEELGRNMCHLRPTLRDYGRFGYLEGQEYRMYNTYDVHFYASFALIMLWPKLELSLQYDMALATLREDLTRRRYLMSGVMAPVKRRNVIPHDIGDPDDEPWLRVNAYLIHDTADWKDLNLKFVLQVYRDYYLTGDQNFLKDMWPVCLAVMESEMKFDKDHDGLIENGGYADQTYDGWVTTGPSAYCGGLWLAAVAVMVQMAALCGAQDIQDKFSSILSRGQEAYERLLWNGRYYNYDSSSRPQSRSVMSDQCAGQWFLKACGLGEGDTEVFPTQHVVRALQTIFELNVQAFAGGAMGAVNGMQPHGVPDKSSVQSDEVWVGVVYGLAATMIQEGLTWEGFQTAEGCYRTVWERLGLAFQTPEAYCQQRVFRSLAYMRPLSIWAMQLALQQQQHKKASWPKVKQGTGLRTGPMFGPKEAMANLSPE
Outline: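 Homogenate of HEK293T cells stably overexpressing human GBA2 (0.083 mg/mL final), pretreated with 20 μM GCase inhibitor, preincubated 5 min at 37 °C with compound, then reacted 20 min with 250 μM 4-methylumbelliferyl-β-D-glucopyranoside at pH 5.5 (citrate-phosphate, 1% C10E6). Fluorescence read at 365/450 nm after alkaline stop; IC50 from log-inhibitor curve fit.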

[2] = molecular target: T1, GBA2; assay: Binding specificity (selectivity) for GBA2 over other enzymes; type: biochemical; settings: compared to a suitable reference compound, e.g. NB-DNJ (miglustat) or AMP-DNM
Text: In some embodiments, one or more of the compounds according to the invention may specifically bind a GBA2. In alternative embodiments, one or more of the compounds according to the invention may specifically bind the active site of a GBA2. […] In alternative embodiments, one or more of the compounds according to the invention may specifically bind the human non-lysosomal glucosylceramidase (GBA2) over the human lysosomal glucosylceramidase (GCase) and/or the human cytosolic glucosylceramidase (GBA3). In alternative embodiments, one or more of the compounds according to the invention may specifically bind the human non-lysosomal glucosylceramidase (GBA2) over the human glucosylceramide synthase (GCS). In alternative embodiments, one or more of the compounds according to the invention may specifically bind the human non-lysosomal glucosylceramidase (GBA2) over an intestinal alpha-glucosidase, where the intestinal alpha-glucosidase may be a sucrase-isomaltase or a maltase-glucoamylase.

[3] = cellular homogenate of HEK293T cells overexpressing human GBA2, 250 μM 4-methylumbelliferone-β-D glucopyranoside, pH 5.5, 37° C., GCase inhibitor present, read-out: GBA2 IC50

IC50 [1, 3] [nM]	binding specificity (IC50 or Ki of other molecule / GBA2) [2]	SMILES	IC50 [1] [nM]
< 100	enhanced binding specificity	C[C@@H]1[C@@H](O)[C@H](O)[C@@H](O)CN1C[C@H]1CC[C@@H](C2CC2)CC1 [Example 20, (2R,3R,4R,5S)-1-(((1s,4S)-4-cyclopropylcyclohexyl)methyl)-2-methylpiperidine-3,4,5-triol]	
< 100	enhanced binding specificity	C[C@@H]1[C@@H](O)[C@H](O)[C@@H](O)CN1CC1CCC2(CCC2)CC1 [Example 24, (2R,3R,4R,5S)-2-methyl-1-(spiro[3.5]nonan-7-ylmethyl)piperidine-3,4,5-triol]	
< 100	enhanced binding specificity	C[C@@H]1[C@@H](O)[C@H](O)[C@@H](O)CN1CCc1c(F)cc(C2CCOCC2)cc1F [Example 54, (2R,3R,4R,5S)-1-(2,6-difluoro-4-(tetrahydro-2H-pyran-4-yl)phenethyl)-2-methylpiperidine-3,4,5-triol]	
< 100	enhanced binding specificity	C[C@@H]1[C@@H](O)[C@H](O)[C@@H](O)CN1CCc1c(F)cc(N2CCCC2)cc1F [Example 56, (2R,3R,4R,5S)-1-(2,6-difluoro-4-(pyrrolidin-1-yl)phenethyl)-2-methylpiperidine-3,4,5-triol]	
< 100	enhanced binding specificity	C[C@@H]1[C@@H](O)[C@H](O)[C@@H](O)CN1CCc1c(F)cc(N2CCCCC2)cc1F [Example 57, (2R,3R,4R,5S)-1-(2,6-difluoro-4-(piperidin-1-yl)phenethyl)-2-methylpiperidine-3,4,5-triol]	

More lines, now with the values behind:

SMILES	IC50 [1, 3] [nM]	binding specificity (IC50 or Ki of other molecule / GBA2) [2]	IC50 [1] [nM]
C[C@@H]1[C@@H](O)[C@H](O)[C@@H](O)CN1C[C@H]1CC[C@@H](C(C)(C)C)CC1 [Example 9, (2R,3R,4R,5S)-1-(((1s,4S)-4-(tert-butyl)cyclohexyl)methyl)-2-methylpiperidine-3,4,5-triol]	< 100	enhanced binding specificity	
C[C@@H]1[C@@H](O)[C@H](O)[C@@H](O)CN1C[C@H]1CC[C@@H](C(F)(F)F)CC1 [Example 11, (2R,3R,4R,5S)-2-methyl-1-(((1s,4S)-4-(trifluoromethyl)cyclohexyl)methyl)piperidine-3,4,5-triol]	< 100	enhanced binding specificity	
C[C@@H]1[C@@H](O)[C@H](O)[C@@H](O)CN1C[C@H]1CC[C@@H](C(C)(C)F)CC1 [Example 13, (2R,3R,4R,5S)-1-(((1s,4S)-4-(2-fluoropropan-2-yl)cyclohexyl)methyl)-2-methylpiperidine-3,4,5-triol]	< 100	enhanced binding specificity	
CC(C)c1cc(F)c(CCN2C[C@H](O)[C@@H](O)[C@H](O)[C@H]2C)c(F)c1 [Example 51, (2R,3R,4R,5S)-1-(2,6-difluoro-4-isopropylphenethyl)-2-methylpiperidine-3,4,5-triol]		enhanced binding specificity	< 100
CC(C)c1ccc(F)c(CCN2C[C@H](O)[C@@H](O)[C@H](O)[C@H]2C)c1F [Example 52, (2R,3R,4R,5S)-1-(2,6-difluoro-3-isopropylphenethyl)-2-methylpiperidine-3,4,5-triol]		enhanced binding specificity	< 100
C[C@@H]1[C@@H](O)[C@H](O)[C@@H](O)CN1CCc1c(F)cc(C2CC2)cc1F [Example 53, (2R,3R,4R,5S)-1-(4-cyclopropyl-2,6-difluorophenethyl)-2-methylpiperidine-3,4,5-triol]		enhanced binding specificity	< 100
C[C@@H]1[C@@H](O)[C@H](O)[C@@H](O)CN1CCc1c(F)cc(C(F)(F)F)cc1F [Example 55, (2R,3R,4R,5S)-1-(2,6-difluoro-4-(trifluoromethyl)phenethyl)-2-methylpiperidine-3,4,5-triol]		enhanced binding specificity	100 to 1000
